From patent publication US7754483B2, “Systems and methods for selection and maintenance of homogeneous and pluripotent human embryonic stem cells” (The Penn State Research Foundation, priority 2005, dated 2010)

Key:
[1] = tested on: hES cells maintained in feeder cells-free culture system; test: Liposomal ceramide treatment of hES cells in feeder cell-free culture (GFR-MATRIGEL); type: cell-based, human; conditions: five micromolar
From the text: NIH-registered hES cell lines, H1 (WA-01; 46XY) and H9 (WA-09; 46XX), are maintained on mouse embryonic fibroblasts (feeder cells) as recommended by the WiCell Research Institute (Madison, Wis.). Mouse feeder cells are irradiated (7500 Rad) and plated (2×10^4 cells/cm^2) on 6-well plates pre-coated with 0.1% gelatin. Feeder cells are allowed to attach and grow overnight prior to hES cell co-culture. Human ES cells are maintained with Dulbecco's Modified Eagle Medium/F12 (Gibco) supplemented with 20% KnockOut serum replacement (Gibco), 1% nonessential amino acids (Gibco), 2 mM GlutaMAX-1 (Gibco), 4 ng/ml basic human FGF (Invitrogen) and 0.1 mM beta-mercaptoethanol (Sigma). Cells are manually passaged following 10 min of collagenase IV incubation (1 mg/ml) at 1:5-1:10 split ratio every 5-7 days. For feeder cell-free culture, hES cells are plated and cultured on 6-well dishes coated with growth factor reduced (GFR)-MATRIGEL, diluted 1:24 in DMEM/F12. Human ES cells co-cultured with feeder cells are treated with collagenase IV for 10 min, collected manually and plated in a 1:3-1:5 split ratio (day=0). Cells are maintained with normal hES cell culture medium until treatment with ceramide (day=2). […]
Light microscopy images of cells from 10 random fields are recorded using a Nikon TS-100 phase-contrast microscope and a Nikon CoolPix 5000 digital camera. […]

hES cells [2] = test: In vitro differentiation of hES cells; type: cell-based, human; conditions: after elimination of ceramide-sensitive cells
From the text: Once separated from feeder cells and serum, hES cells typically spontaneously differentiate into progenitor cells and such cultures include ectoderm, mesoderm and endoderm progenitor cells. Similar to in vivo embryogenesis, further differentiation of these progenitor cells results in formation of terminally differentiated cell types illustratively including neurons, cardiomyocytes, endothelial, and pancreatic β-cells. The ability of hES cells to form all three embryonic lineages is one of the main criteria to determine their pluripotency. Early lineage differentiation is assessed using lineage specific markers. Exemplary lineage specific markers include nestin for ectodermal; α-fetoprotein for endodermal; and brachyury for mesodermal. Later stages of differentiation of these progenitor cells into specialized cells are assessed by assay of markers for more specialized cells representing three lineages, such as serotonergic neurons, insulin-positive cells, and cardiomyocytes.
To assess in vitro differentiation, hES cells are isolated and transferred into non-coated culture plates where hES cells form embryoid bodies (EBs). For neuronal differentiation, these EBs are treated with a neurobasal medium (insulin-transferrin-selenium) to induce neuroprogenitor cell formation for seven days. Then, bFGF ([…]) is added to medium for another seven days. […]

hES cells [3] = test: Apoptosis detection by TUNEL assay; type: cell-based, human; conditions: Example 22, hESC colonies
Experimental: Ceramide-induced apoptosis is assessed and visualized by TUNEL assay using the In Situ Cell Death Detection Kit, TMR Red (Roche Applied Bioscience). A TUNEL (Terminal deoxynucleotidyl Transferase Biotin-dUTP Nick End Labeling) assay measures and quantitates apoptosis by labeling DNA strand breaks in individual cells and detecting them by fluorescence microscopy. Human ES cells are cultured on glass cover-slips coated with 0.1% gelatin and mouse feeder cells. When the majority of the colonies reached the size of 0.5-0.7 mm (usually by day 5 of the culture), cells are treated with liposomal C6-ceramide (3 micromolar final) or ghost (no ceramide) for 12 hr. Cells are incubated for 12 hr because cells undergoing apoptosis are still attached to the cover-slip, making observation convenient. After 12 hr, cells become round and detached. At the end of the treatment period, cells are fixed with 4% formaldehyde (Tousimis) in PBS. TUNEL assay is performed using the In Situ Cell Death Detection Kit, TMR Red (Roche Applied Bioscience) following the manufacturer's instructions. Briefly, cells are permeabilized by incubating in 0.1% PBST for 2 min on ice. TUNEL reaction mixture is prepared freshly by mixing 50 microliters of enzyme solution (terminal deoxynucleotidyl transferase) with 450 microliters label solution (nucleotide mixture). […]

hES cells, H1 or H9 = test: Liposomal ceramide treatment of hES cell colonies co-cultured with mouse feeder cells; type: cell-based
Experimental: Mouse feeder cells are irradiated (7500 Rad) and plated (2×10^4 cells/cm^2) on 6-well plates pre-coated with 0.1% gelatin. Feeder cells are allowed to attach and grow overnight prior to hES cell co-culture. Human ES cells are maintained with Dulbecco's Modified Eagle Medium/F12 (Gibco) supplemented with 20% KnockOut serum replacement (Gibco), 1% nonessential amino acids (Gibco), 2 mM GlutaMAX-1 (Gibco), 4 ng/ml basic human FGF (Invitrogen) and 0.1 mM beta-mercaptoethanol (Sigma). Cells are manually passaged following 10 min of collagenase IV incubation (1 mg/ml) at 1:5-1:10 split ratio every 5-7 days. […] Human ES cells co-cultured with feeder cells are treated with collagenase IV for 10 min, collected manually and plated in a 1:3-1:5 split ratio (day=0). Cells are maintained with normal hES cell culture medium until treatment with ceramide (day=2).
Increasing concentrations, 1, 3, 5, 10, 15 and 30 micromolar, of liposomal C6-ceramide are added to hES cell culture medium after a majority of the colonies had reached a size between 0.5-0.7 mm in diameter (day 5-6 of the culture). Relative volumes of “ghost liposome” containing no ceramide are used as a control. These ghost liposomes contained an equal mass of total lipids as ceramide formulations. […]

ceramide
effect on differentiation of hESCs without feeder cells [1]: inhibits differentiation and allows maintenance of undifferentiated stem cell growth | differentiation capability of ceramide-selected hES cells (hES cells [2]): capable of differentiated into ectoderm, mesoderm or endoderm progenitor cells | TUNEL: apoptosis after ceramide-conditioning (hES cells [3]): hESCs on the periphery of the colonies are, indeed, undergoing apoptosis | effect on peripheral cells of H9 hESC colonies (hES cells, H1 or H9; 5 micromolar, 8 hrs, H9 (WA09), with MEF): eliminates cells located on the periphery of the hESC colonies | growth of central hESCs after addition of ceramide (hES cells, H1 or H9; Example 22): continue their normal growth
